Data as given in PMC8308625, “Preclinical Studies in Anti-Trypanosomatidae Drug Development” (Pharmaceuticals, 2021).
Like-named read-outs stand apart in the source and are kept apart here. Values belong to the compound of their own block, whether it stands above or below them.

How the values were obtained:
[1] = tested on: T. brucei; assay: Growth inhibition of T. brucei bloodstream form trypomastigotes (resazurin); type: cell-based, Trypanosoma brucei brucei; details: for EC50: read-out: EC50 ± SD T. brucei
Method: Compounds were dissolved in dimethylsulfoxide (DMSO).

[2] = tested on: T. cruzi; details: cited from earlier work
[3] = tested on: L. braziliensis; details: read-out: EC50 ± SD L. brazils, cited from earlier work
[4] = tested on: L. infantum reference strain (MHOM/BR/2002/LPC-RPV); assay: Growth inhibition of L. infantum reference strain promastigotes (resazurin); details: for Selectivity Index MΦ/Lin–Ref: EC50 mammalian cell line/EC50 L. infantum reference strain
[5] = tested on: fibroblasts (NCTC929); assay: Cytotoxicity in fibroblasts; type: cell-based
Description: Table 5 Cytotoxicity and selectivity index of reference drugs and selected molecules. | column: EC50 ± SD (µM) ^a / Fibroblasts

[6] = Liver fraction stability (cytosolic and microsomal fraction of rat hepatocytes, TLC); type: in vitro ADME; details: rat hepatocyte cytosolic and microsomal fractions, 37 °C
Method: For the determination of the stability in the different fractions, (cytosolic and microsomal of rat hepatocytes) the different proteins present in them were used. The fractions were prepared according to the previously reported protocol. […] The final concentration of the molecules in the aqueous medium was 400 µM and prepared from a stock in DMSO of 40 mM. The solutions were homogenized and incubated at 37 °C at 10 min, 30 min, 1 h, 2 h, 3 h and 4 h. (by TLC). For this, it was incubated at 37 °C in a volume of 1 mL: 2.5 µL of 30 mM Magnesium Chloride (MgCl); 2.5 µL of 40 mM Nicotinamide Adenosine Dinucleotide Phosphate (NADP+); 5 µL of 350 mM Glucose 6- Phosphate (Glu6P); 5 µL of Glucose 6- phosphate dehydrogenase (Glu6PD) 50 U/mL, 5 µL of the stock of 40 mM compounds and the volume of the Phosphate Buffer (pH = 7) must be such that cytosolic (CF) and microsomal (MF) fraction FC and FM present a final protein concentration of 0.1 mg/mL. After that, the stability of compounds 796 and 1019 in the cytosolic (FCF) and microsomal (FMF) fraction of rat hepatocytes was evaluated at different times (1–4 h). Thin-layer chromatography of ethyl acetate extracts was conducted to evaluate the presence of decomposition products. The mobile phase used for these TLCs was n-hexane: ethyl acetate (7: 3).

[7] = tested on: J774.1 murine macrophages; assay: Nonspecific cytotoxicity in murine macrophages (MTT)
[8] = tested on: L. amazonensis; assay: Growth inhibition of L. amazonensis promastigotes (resazurin); details: for EC50: read-out: EC50 ± SD L. amaz; for Selectivity Index MΦ/L. amaz: EC50 mammalian cell line/EC50 L. amazonensis
[9] = tested on: L. infantum veterinary isolate (MCAN_UY_2015_gPL8); assay: Growth inhibition of L. infantum veterinary isolate promastigotes (resazurin)
[10] = tested on: L. infantum amastigote; assay: Single dose study in the amastigote form of L. infantum; type: cell-based; details: Leishmania infantum, single dose 10 µM
[11] = set-up: method as in PMID 24749923, PMID 26492824, PMID 25512408; details: ref [13],[14],[15]; cited from earlier work
[12] = cited from earlier work
[13] = cited from earlier work; remark: listed apart in the source
[14] = mice, up and down test, cited from earlier work
[15] = Acute oral toxicity (up and down test); details: mice
[16] = tested on: L. amazonensis; assay: Murine model of cutaneous Leishmaniasis; details: BALB/c mice, oral, when treatment begins (Figure 2C)
[17] = set-up: method as in data provided by the DNDi program, non-published; details: ref data provided by the DNDi program, non-published; cited from earlier work
[18] = Nonspecific cytotoxicity in murine macrophages (MTT); details: mouse, J774.1 murine macrophages
[19] = Table 4, curcuminoids, ref [14], read-out: EC50 ± SD T. cruzi
[20] = Table 4, curcuminoids, ref [14]
[21] = read-out: EC50 ± SD Lin–Ref, Table 4, curcuminoids, L. infantum reference strain
[22] = read-out: EC50 ± SD Fibroblasts
[23] = read-out: EC50 ± SD MΦ, murine macrophages, footnote: J774.1 macrophages or differentiated THP-1 monocytes
[24] = Trypanosoma brucei, Table 3, thiazolidene hydrazines
[25] = Table 3, thiazolidene hydrazines, ref [13],[16],[19],[23],[25], read-out: EC50 ± SD T. cruzi
[26] = Mus musculus, J774.1, read-out: EC50 ± SD MΦ
[27] = Leishmania infantum, read-out: EC50 ± SD Lin–Ref

- EC50 ([1]; Table 4, curcuminoids): 16 ± 3 µM
- EC50 [4, 21]: < 0.3 µM
Structure (SMILES): O=C1C(=CC=Cc2cccs2)CCCC1=CC=Cc1cccs1 [Compound 1245]
- EC50 [2, 19]: 0.6 ± 0.2 µM
- EC50 [3, 20]: 16 ± 1 µM

- EC50 ([1]; Table 4, curcuminoids): 17 ± 2 µM
- EC50 [4, 21]: < 0.3 µM
Structure (SMILES): O=C(C=CC=Cc1ccco1)C=CC=Cc1ccco1 [Compound 793]
- EC50 [2, 19]: 5 ± 0.7 µM

- EC50 ([1]; Table 4, curcuminoids): 1.8 ± 0.5 µM
- metabolic stability: time compound detected / degraded [6]: < 1 h
- EC50 ([8]; Table 4, curcuminoids): 10 ± 6 µM
- EC50 [4, 21]: 5 ± 1 µM
- EC50 ([9]; read-out: EC50 ± SD Lin–Vet, Table 4, curcuminoids, L. infantum veterinary isolate): 10 ± 2 µM
Structure (SMILES): O=C(C=Cc1ccco1)C=Cc1ccco1 [Compound 795]
- EC50 [5, 22]: 114 ± 6 µM
- EC50 [2, 19]: 24 ± 2 µM
- EC50 [3, 20]: 6 ± 2 µM
- EC50 [7, 23]: 115 ± 2 µM

- EC50 [4, 21]: 3 ± 0.5 µM
Structure (SMILES): O=C(C=CC=Cc1cccs1)C=CC=Cc1cccs1 [Compound 798]
- EC50 [2, 19]: 13 ± 1 µM
- EC50 [3, 20]: 19 ± 5 µM

- EC50 [1, 24]: 14 ± 3 µM
Structure (SMILES): C=CCn1c(-c2ccc(Cl)cc2)cs\c1=N/N=C/C(C)=C/c1ccco1 [Compound 873]
- EC50 [2, 25]: 0.09 ± 0.02 µM

Structure (SMILES): C=CCn1c(-c2ccc(Cl)cc2)cs\c1=N/N=C/C=C/c1ccco1 [Compound 266]
- EC50 [1, 24]: 5 ± 1 µM
- EC50 ([5]; NCTC-929, read-out: EC50 ± SD Fibroblasts): 405 ± 10 µM
- inhibition at 10 µM [10]: 69%
- EC50 [2, 25]: 1.6 ± 0.5 µM
- EC50 ([2]; amastigotes, multiple strains, ref [13],[14],[15], read-out: EC50 in vitro anti-T. cruzi, amastigotes): > 0.25 µM
- Stability in vitro (microsomal, plasma, other solutions) [11]: high
- AMES test, mutagenic capacity ([12]; previous works, ref [13],[16]): negative
- Ames Test (mutagenicity) ([12]; ref [13],[14],[15]): no
- micronucleus test, genotoxicity ([13]; previous works, ref [13],[16]): not genotoxic
- Micronucleus test in mice (Genotoxicity) ([13]; ref [13],[14],[15]): no
- acute toxicity LD50 ([14]; previously evaluated, ref [13],[16]): > 2000 mg/kg of weight
- Acute oral toxicity LD50 ([14]; ref [13],[14],[15]): LD50 > 2000 mg/kg in mice
- EC50 ([3]; Table 3, thiazolidene hydrazines, ref [13],[16],[19],[23],[25]): 20 ± 2 µM
- survival in the acute toxicity model in vivo [15]: 100%
- diameter of the paw [16]: begins to decrease
- EC50 [7, 26]: 60 ± 6 µM
- Selectivity Index MΦ/L. amaz [8]: 9
- EC50 ([8]; Leishmania amazonensis): 7 ± 1 µM
- Selectivity Index MΦ/Lin–Ref [4]: 30
- EC50 [4, 27]: 2 ± 0.2 µM
- Selectivity Index MΦ/Lin–Vet ([9]; EC50 mammalian cell line/EC50 L. infantum veterinary isolate): 7
- EC50 ([9]; Leishmania infantum, read-out: EC50 ± SD Lin–Vet): 9 ± 1 µM

- EC50 ([8]; Table 4, curcuminoids): 16 ± 2 µM
- EC50 [4, 21]: 3 ± 1 µM
Structure (SMILES): CC(C=CC(=O)C=CC(C)=Cc1ccco1)=Cc1ccco1 [Compound 809]
- trypanosomicidal effect on T. brucei [1]: no trypanosomicidal effect
- EC50 [5, 22]: 543 ± 6 µM
- EC50 [2, 19]: 8 ± 2 µM
- EC50 [3, 20]: 6 ± 1 µM
- EC50 [7, 23]: 33 ± 8 µM
- growth inhibitory / trypanosomicidal effect on the L. infantum canine-derived isolate [9]: no trypanosomicidal effect

Structure (SMILES): CNc1nnc(Sc2cnn(-c3ccccc3)c(=O)c2Cl)s1 [MMV688763, 4-Chloro-5-{[5-(methylamino)-1,3,4-thiadiazol-2-yl]sulfanyl}-2-phenyl-2,3-dihydropyridazin-3-one]
- pharmacokinetics [17]: pharmacokinetic problems
- EC50 at 48 h [18]: > 50 µM
- Selectivity Index MΦ/Reference ([4]; EC50 J774.1 macrophages versus L. infantum reference strain): >24
- EC50 ([4]; Leishmania infantum, read-out: EC50 L. infantum Reference): 2.1 ± 0.2 µM
- Selectivity Index MΦ/Veterinary ([9]; EC50 J774.1 macrophages versus L. infantum veterinary isolate): >56
- EC50 ([9]; Leishmania infantum, read-out: EC50 L. infantum Veterinary): 0.9 ± 0.1 µM

- EC50 ([8]; Table 4, curcuminoids): 18 ± 4 µM
- EC50 [4, 21]: < 0.3 µM
Structure (SMILES): O=C1C(=CC=Cc2ccco2)CCC1=CC=Cc1ccco1 [Compound 1223]
- trypanosomicidal effect on T. brucei [1]: no trypanosomicidal effect
- EC50 [2, 19]: 5 ± 2 µM
- EC50 [3, 20]: 16 ± 4 µM
- growth inhibitory / trypanosomicidal effect on the L. infantum canine-derived isolate [9]: no trypanosomicidal effect

- EC50 ([1]; Table 4, curcuminoids): 16 µM
Structure (SMILES): O=C(C=CC=Cc1ccco1)C=CC=Cc1cccs1 [Compound 1414]
- EC50 [2, 19]: 12 ± 1 µM

Structure (SMILES): COc1cc(/C=C/C(=O)CC(=O)/C=C/c2ccc(O)c(OC)c2)ccc1O [Curcumin, reference compound]
- EC50 ([1]; Trypanosoma brucei, Table 4, curcuminoids): 8 ± 1 µM
- EC50 [2, 19]: 6 ± 1 µM
- EC50 [3, 20]: 6 ± 1 µM
- EC50 [7, 26]: 10 ± 2 µM
- Selectivity Index MΦ/L. amaz [8]: 2
- Selectivity Index MΦ/Lin–Ref [4]: 2
- EC50 [4, 27]: 5 ± 1 µM

Structure (SMILES): O=C(C=CC=Cc1ccccc1)C=CC=Cc1ccccc1 [Compound 797]
- EC50 [2, 19]: 11 ± 2 µM
